Experimental data reported in PMC12265377, “CC48 a new CB2R agonist/FAAH inhibitor dual drug blocks gastric cancer progression and overcomes paclitaxel resistance” (Journal of Experimental & Clinical Cancer Research : CR, 2025).

How the values were obtained:
FAAH Human recombinant = biological target: T1, FAAH Human recombinant (Homo sapiens, UniProt O00519); assay: FAAH inhibition assay; assay type: biochemical; settings: ± SEM, substrate AMC-AA 1 µM
T1 construct: purchased Cayman Chemical
T1 sequence (O00519 1-579): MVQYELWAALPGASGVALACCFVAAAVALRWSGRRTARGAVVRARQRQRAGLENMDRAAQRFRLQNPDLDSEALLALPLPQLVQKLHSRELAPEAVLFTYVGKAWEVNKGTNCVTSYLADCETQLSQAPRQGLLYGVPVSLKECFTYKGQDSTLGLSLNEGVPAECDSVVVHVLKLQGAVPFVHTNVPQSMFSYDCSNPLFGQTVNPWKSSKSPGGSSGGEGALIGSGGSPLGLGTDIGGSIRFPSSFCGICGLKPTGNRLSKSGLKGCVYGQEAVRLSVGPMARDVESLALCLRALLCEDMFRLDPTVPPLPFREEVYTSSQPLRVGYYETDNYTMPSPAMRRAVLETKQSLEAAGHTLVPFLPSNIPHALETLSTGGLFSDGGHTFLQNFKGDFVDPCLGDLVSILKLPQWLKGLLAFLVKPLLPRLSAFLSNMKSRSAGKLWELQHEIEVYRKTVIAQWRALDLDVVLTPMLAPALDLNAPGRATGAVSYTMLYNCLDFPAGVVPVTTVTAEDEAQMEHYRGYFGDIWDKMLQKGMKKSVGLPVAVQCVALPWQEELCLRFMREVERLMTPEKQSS
Procedure: Assays were performed using 96-well black flat-bottom microtiter NBS plates (COSTAR flat black). […] The substrate (7-amino-4-methyl-2 H-1-benzopyran-2-one-5Z,8Z,11Z,14Z-eicosatetraen-amide, AMC-AA, 1µM final concentration) was then added, and the assay was incubated for 2 h at 37 °C in a TECAN infinite M1000Pro plate reader (Tecan, Männedorf, Switzerland) which measured the fluorescence from each well every 30 s (λex = 340 nm, λem = 450 nm), determining FAAH activity as relative fluorescence units (RFU). Control wells lacking the inhibitor and blank wells lacking both inhibitor and enzyme were used to calculate the percent inhibition for each tested compound. IC50 values were calculated via GraphPad Prism 5.0 (GraphPad Software, La Jolla, CA, USA) and are reported as mean ± SEM of at least three independent measurements performed in triplicate.

[1] = system: HGC27-S/R and AGS cell lines; assay: VEGFA in cell culture medium (ELISA), all lines; assay type: cell-based, human; settings: all the cell lines investigated, 48 h
Procedure: The amount of VEGFA secreted in the culture medium by HGC27-S/R and AGS treated cells was measured using a highly sensitive Enzyme-Linked Immunosorbent Assay (ELISA), Quantikine Kit ELISA (R&D Systems, Minneapolis, MN, USA), according to the manufacturer’s instructions. The measured values were normalized to the number of cells.

[2] = system: circulating cytokines (eotaxin, G-CSF, p40IL-12); assay: Serum cytokine quantification (Bio-Plex); assay type: in vivo, CD1-nude female mice
Procedure: Serum levels of 23 cytokines [G-CSF, GM-CSF, GRO/KC (CXCL1), IFN-γ, IL-1α, IL-1β, IL-2, IL-3, IL-4, IL-5, IL-6, IL-9, IL-10, IL-12 (p70), IL-13, IL-17 A, IL-18, MCP-1 (CCL2), MIP-1α, MIP-1β, RANTES, TNF-α, and eotaxin] were measured using Bio-Plex Pro Rat Cytokine 23-Plex™ (#M60009RDPD) magnetic bead-based assays (Bio-Rad Laboratories) on the Bio-Plex® platform (Bio-Rad), according to the manufacturer’s instructions. […] Cytokine expression (pg/mL) for each sample was multiplied by the dilution factor prior to the percent baseline calculation.

CB1R = system: CB1R; design: method as in PMID 36657299; settings: cited from earlier work

Row | SMILES | FAAHi IC50 (FAAH Human recombinant) | IC50 (FAAH Human recombinant; read-out: FAAHi IC50) | VEGFA secretion in culture medium (in words) [1] | serum G-CSF level vs GP1 ([2]; GP2, 10 mg/kg, p < 0.01) | serum eotaxin level vs GP1 ([2]; GP3, 20 mg/kg) | serum G-CSF level vs GP1 ([2]; GP3, 20 mg/kg, p < 0.05) | serum p40IL-12 level vs GP1 ([2]; GP3, 20 mg/kg, p < 0.05) | EC50 (CB1R)
1 | COc1ccc(C(=O)c2c(C)n(CCN3CCOCC3)c3cc(I)ccc23)cc1 [AM630, reference compound] | low FAAH inhibition activity | 20 ± 2.8 µM | increase in VEGFA secretion | – | – | – | – | –
2 | O=C(NC12CC3CC(CC(C3)C1)C2)c1ccccc1OCc1ccccc1 [CC48] | – | – | – | significant decrease | tended to decrease | maintained at the highest dose | significant decrease | 0.489 µM
